Reference: patent US10952431B2, “Releasable encapsulation compositions” (Battelle Memorial Institute, priority 2016, dated 2021)

Test: Particle size distribution before and after encapsulation
Assay type: physicochemical
Conditions: FIG. 6A, non-encapsulated
Description: FIGS. 6A-6B show charts of the particle size distribution of TAED. […] Upon encapsulation, approximately 50% of the particles are distributed in the particle size range of 1 and 2 microns. This information also confirms the TAED is coated with the nonionic amphiphilic graft copolymer (PLMA-g-PEG).

In the case of `CC(=O)N(CCN(C(C)=O)C(C)=O)C(C)=O` [TAED, tetraacetylethylene-diamine], the “particle size (majority of particles)” value was 20-30 microns.
